Data: patent US9458153B2, “Dihydroquinolizinones for the treatment and prophylaxis of hepatitis B virus infection” (Hoffmann-La Roche Inc., priority 2014, dated 2016)

Test system: HBsAg
Assay: HBsAg assay (chemiluminescence immunoassay of secreted HBsAg in HepG2.2.15 culture supernatant)
Format: cell-based, HBV
Conditions: HepG2.2.15 cells, CLIA kit
How it was run: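 HepG2.2.15 cells, which constitutively express HBV, were seeded in duplicate and treated with three-fold serial compound dilutions at 1% DMSO final. Secreted HBsAg in culture supernatant was measured semi-quantitatively by chemiluminescence immunoassay. IC50 was extrapolated from dose-response curves.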

[1] = Hepatitis B virus, HepG2.2.15, HBsAg secretion reduced by 50% vs no drug control
[2] = HBsAg secretion reduced by 50% vs no drug control

SMILES	IC50 [1] [nM]	IC50 [2] [nM]
CCC1Cc2cc(OCCOCCOC)c(OC)cc2-c2cc(=O)c(C(=O)O)cn21 (stereo not drawn) [Example 19, 6-ethyl-10-methoxy-9-[2-(2-methoxyethoxyl)ethoxy]-2-oxo-6,7-dihydrobenzo[a]quinolizine-3-carboxylic acid]	250	
CCC1Cc2cc(OCCN3CCOCC3)c(OC)cc2-c2cc(=O)c(C(=O)O)cn21 (stereo not drawn) [Example 20, 6-ethyl-10-methoxy-9-(2-morpholinoethoxy)-2-oxo-6,7-dihydrobenzo[a]quinolizine-3-carboxylic acid]	220	
CCC1Cc2cc(OCCO)c(OC)cc2-c2cc(=O)c(C(=O)O)cn21 (stereo not drawn) [Example 21, 6-ethyl-9-(2-hydroxyethoxy)-10-methoxy-2-oxo-6,7-dihydrobenzo[a]quinolizine-3-carboxylic acid]	450	
CCC1Cc2cc(OCC(C)(C)CO)c(OC)cc2-c2cc(=O)c(C(=O)O)cn21 (stereo not drawn) [Example 22, 6-ethyl-9-(3-hydroxy-2,2-dimethyl-propoxy)-10-methoxy-2-oxo-6,7-dihydrobenzo[a]quinolizine-3-carboxylic acid]		39
CCC1Cc2cc(OCCCO)c(OC)cc2-c2cc(=O)c(C(=O)O)cn21 (stereo not drawn) [Example 25, 6-ethyl-9-(3-hydroxypropoxy)-10-methoxy-2-oxo-6,7-dihydrobenzo[a]quinolizine-3-carboxylic acid]	155	
CCC1Cc2cc(OCCn3ccnc3)c(OC)cc2-c2cc(=O)c(C(=O)O)cn21 (stereo not drawn) [Example 26, 6-ethyl-9-(2-imidazol-1-ylethoxy)-10-methoxy-2-oxo-6,7-dihydrobenzo[a]quinolizine-3-carboxylic acid]	1650	
CCC1Cc2cc(OCCOC)c(OC)cc2-c2cc(=O)c(C(=O)O)cn21 (stereo not drawn) [Example 27, 6-ethyl-10-methoxy-9-(2-methoxyethoxy)-2-oxo-6,7-dihydrobenzo[a]quinolizine-3-carboxylic acid]		56
CCOc1cc2c(cc1OC)-c1cc(=O)c(C(=O)O)cn1C(CC)C2 (stereo not drawn) [Example 36, 9-ethoxy-6-ethyl-10-methoxy-2-oxo-6,7-dihydrobenzo[a]quinolizine-3-carboxylic acid]		53
CCC1Cc2cc(OCCCOC)c(OC)cc2-c2cc(=O)c(C(=O)O)cn21 (stereo not drawn) [Example 39, 6-ethyl-10-methoxy-9-(3-methoxypropoxy)-2-oxo-6,7-dihydrobenzo[a]quinolizine-3-carboxylic acid]		16
CCOCCOc1cc2c(cc1OC)-c1cc(=O)c(C(=O)O)cn1C(CC)C2 (stereo not drawn) [Example 42, 9-(2-ethoxyethoxy)-6-ethyl-10-methoxy-2-oxo-6,7-dihydrobenzo[a]quinolizine-3-carboxylic acid]		57
CCC1Cc2cc(OCC(F)F)c(OC)cc2-c2cc(=O)c(C(=O)O)cn21 (stereo not drawn) [Example 45, 9-(2,2-difluoroethoxy)-6-ethyl-10-methoxy-2-oxo-6,7-dihydrobenzo[a]quinolizine-3-carboxylic acid]		104
CCC1Cc2cc(OCC3CCOCC3)c(OC)cc2-c2cc(=O)c(C(=O)O)cn21 (stereo not drawn) [Example 48, 6-ethyl-10-methoxy-2-oxo-9-(tetrahydropyran-4-ylmethoxy)-6,7-dihydrobenzo[a]quinolizine-3-carboxylic acid]		24
CCC1Cc2cc(OCCN3CCCC3)c(OC)cc2-c2cc(=O)c(C(=O)O)cn21 (stereo not drawn) [Example 51, 6-ethyl-10-methoxy-2-oxo-9-(2-pyrrolidin-1-ylethoxy)-6,7-dihydrobenzo[a]quinolizine-3-carboxylic acid]	3900	
CCC1Cc2cc(OCCCC#N)c(OC)cc2-c2cc(=O)c(C(=O)O)cn21 (stereo not drawn) [Example 52, 9-(3-cyanopropoxy)-6-ethyl-10-methoxy-2-oxo-6,7-dihydrobenzo[a]quinolizine-3-carboxylic acid]	170	
CCC1Cc2cc(OCCS(C)(=O)=O)c(OC)cc2-c2cc(=O)c(C(=O)O)cn21 (stereo not drawn) [Example 53, 6-ethyl-10-methoxy-9-(2-methylsulfonylethoxy)-2-oxo-6,7-dihydrobenzo[a]quinolizine-3-carboxylic acid]	1540	
CCC1Cc2cc(OCCN3CCCC3=O)c(OC)cc2-c2cc(=O)c(C(=O)O)cn21 (stereo not drawn) [Example 54, 6-ethyl-10-methoxy-2-oxo-9-[2-(2-oxopyrrolidin-1-yl)ethoxy]-6,7-dihydrobenzo[a]quinolizine-3-carboxylic acid]	130	
CC[C@@H]1Cc2cc(OCCN3CCCC3=O)c(OC)cc2-c2cc(=O)c(C(=O)O)cn21 [Example 55, (+)-6-ethyl-10-methoxy-2-oxo-9-[2-(2-oxopyrrolidin-1-yl)ethoxy]-6,7-dihydrobenzo[a]quinolizine-3-carboxylic acid]	720	
CCC1Cc2cc(OCCNS(C)(=O)=O)c(OC)cc2-c2cc(=O)c(C(=O)O)cn21 (stereo not drawn) [Example 56, 6-ethyl-9-[2-(methanesulfonamido)ethoxy]-10-methoxy-2-oxo-6,7-dihydrobenzo[a]quinolizine-3-carboxylic acid]	3300	
CCC1Cc2cc(OCC3(C#N)CC3)c(OC)cc2-c2cc(=O)c(C(=O)O)cn21 (stereo not drawn) [Example 57, 9-[(1-cyanocyclopropyl)methoxy]-6-ethyl-10-methoxy-2-oxo-6,7-dihydrobenzo[a]quinolizine-3-carboxylic acid]	170	
CC1Cc2cccc(Br)c2-c2cc(=O)c(C(=O)O)cn21 (stereo not drawn) [Example 60, 11-bromo-6-methyl-2-oxo-6,7-dihydrobenzo[a]quinolizine-3-carboxylic acid]	1240	

SMILES	IC50 [1] [nM]	IC50 [2] [nM]
C[C@@H]1Cc2cc(Br)ccc2-c2cc(=O)c(C(=O)O)cn21 [Example 61, (+)-9-bromo-6-methyl-2-oxo-6,7-dihydrobenzo[a]quinolizine-3-carboxylic acid]	6020	
CC1Cc2cc(N3CCN(C(=O)OC(C)(C)C)CC3)ccc2-c2cc(=O)c(C(=O)O)cn21 (stereo not drawn) [Example 62, 9-(4-tert-butoxycarbonylpiperazin-1-yl)-6-methyl-2-oxo-6,7-dihydrobenzo[a]quinolizine-3-carboxylic acid]	990	
CC1Cc2cc(N(C)Cc3ccccc3)ccc2-c2cc(=O)c(C(=O)O)cn21 (stereo not drawn) [Example 63, 9-[benzyl(methyl)amino]-6-methyl-2-oxo-6,7-dihydrobenzo[a]quinolizine-3-carboxylic acid]	7180	
CNc1cccc2c1-c1cc(=O)c(C(=O)O)cn1C(C)C2 (stereo not drawn) [Example 64, 6-methyl-11-(methylamino)-2-oxo-6,7-dihydrobenzo[a]quinolizine-3-carboxylic acid]	24900	
COc1cc2c(cc1Cl)-c1cc(=O)c(C(=O)O)cn1C(C)C2 (stereo not drawn) [Example 65, 10-chloro-9-methoxy-6-methyl-2-oxo-6,7-dihydrobenzo[a]quinolizine-3-carboxylic acid]	320	
COc1cc2c(cc1OC)-c1cc(=O)c(C(=O)O)cn1C(C)C2 (stereo not drawn) [Example 66, 9,10-dimethoxy-6-methyl-2-oxo-6,7-dihydrobenzo[a]quinolizine-3-carboxylic acid]		430
COc1cc2c(cc1OC)C(C)Cn1cc(C(=O)O)c(=O)cc1-2 (stereo not drawn) [Example 69, 9,10-dimethoxy-7-methyl-2-oxo-6,7-dihydrobenzo[a]quinolizine-3-carboxylic acid]	1300	
CCC1Cc2cc(OC)c(OC)cc2-c2cc(=O)c(C(=O)O)cn21 (stereo not drawn) [Example 70, 6-ethyl-9,10-dimethoxy-2-oxo-6,7-dihydrobenzo[a]quinolizine-3-carboxylic acid]	70	
CC[C@@H]1Cc2cc(OC)c(OC)cc2-c2cc(=O)c(C(=O)O)cn21 [Example 71, (6R)-(+)-6-ethyl-9,10-dimethoxy-2-oxo-6,7-dihydrobenzo[a]quinolizine-3-carboxylic acid]	37	
CC[C@H]1Cc2cc(OC)c(OC)cc2-c2cc(=O)c(C(=O)O)cn21 [Example 72, (6S)-(−)-6-ethyl-9,10-dimethoxy-2-oxo-6,7-dihydrobenzo[a]quinolizine-3-carboxylic acid]	12000	
COc1cc2c(cc1C)-c1cc(=O)c(C(=O)O)cn1C(C)C2 (stereo not drawn) [Example 73, 9-methoxy-6,10-dimethyl-2-oxo-6,7-dihydrobenzo[a]quinolizine-3-carboxylic acid]	140	
CCOc1cc2c(cc1OCC)-c1cc(=O)c(C(=O)O)cn1C(C)C2 (stereo not drawn) [Example 74, 9,10-diethoxy-6-methyl-2-oxo-6,7-dihydrobenzo[a]quinolizine-3-carboxylic acid]	140	
CCOc1cc2c(cc1O)-c1cc(=O)c(C(=O)O)cn1C(C)C2 (stereo not drawn) [Example 75, 9-ethoxy-6-methyl-10-hydroxy-2-oxo-6,7-dihydrobenzo[a]quinolizine-3-carboxylic acid]	1110	
CCCOc1cc2c(cc1OCCC)-c1cc(=O)c(C(=O)O)cn1CC2 [Example 77, 2-oxo-9,10-dipropoxy-6,7-dihydrobenzo[a]quinolizine-3-carboxylic acid]	830	
CCCc1cc2c(cc1OC)-c1cc(=O)c(C(=O)O)cn1C(CC)C2 (stereo not drawn) [Example 81, 6-ethyl-10-methoxy-2-oxo-9-propyl-6,7-dihydrobenzo[a]quinolizine-3-carboxylic acid]	330	
COc1ccc2c(c1Cl)CC(C)n1cc(C(=O)O)c(=O)cc1-2 (stereo not drawn) [Example 82, 8-chloro-9-methoxy-6-methyl-2-oxo-6,7-dihydrobenzo[a]quinolizine-3-carboxylic acid]	5270	
COc1cc2c(c(Cl)c1OC)CC(C)n1cc(C(=O)O)c(=O)cc1-2 (stereo not drawn) [Example 83, 8-chloro-9,10-dimethoxy-6-methyl-2-oxo-6,7-dihydrobenzo[a]quinolizine-3-carboxylic acid]	5600	
CCCOc1cc2c(cc1OC)CC(C)n1cc(C(=O)O)c(=O)cc1-2 (stereo not drawn) [Example 87, 9-methoxy-6-methyl-2-oxo-10-propoxy-6,7-dihydrobenzo[a]quinolizine-3-carboxylic acid]	1550	
CCc1cc2c(cc1OC)CC(CC)n1cc(C(=O)O)c(=O)cc1-2 (stereo not drawn) [Example 88, 6,10-diethyl-9-methoxy-2-oxo-6,7-dihydrobenzo[a]quinolizine-3-carboxylic acid]	20	
